Results reported in PubChem BioAssay (NCI).
Several values for one entry are separate records, joined by “and”; a condition that tells them apart may be missing. Identical values can stand only once.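 Exposure lasted 48 hours, with cells grown in 96-well plates and compounds tested at five concentrations. GI50 marks 50% less growth. TGI denotes the concentration required for complete inhibition of growth.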

Tests used:
Assay in all cases: NCI-60 cell line screen, 48 h
NCI-H226 lung = system: NCI-H226 lung
DU-145 prostate = system: DU-145 prostate
HL-60(TB) leukemia = system: HL-60(TB) leukemia
SK-MEL-5 melanoma = system: SK-MEL-5 melanoma
MDA-MB-435 = system: MDA-MB-435
NCI/ADR-RES ovarian = system: NCI/ADR-RES ovarian
MALME-3M melanoma = system: MALME-3M melanoma
786-0 renal = system: 786-0 renal
OVCAR-8 ovarian = system: OVCAR-8 ovarian
SF-539 CNS = system: SF-539 CNS
SF-295 CNS = system: SF-295 CNS
RXF 393 renal = system: RXF 393 renal

Row | SMILES | TGI (NCI-H226 lung) | TGI (DU-145 prostate) | TGI (HL-60(TB) leukemia) | TGI (SK-MEL-5 melanoma) | TGI (MDA-MB-435) | TGI (NCI/ADR-RES ovarian) | TGI (MALME-3M melanoma) | TGI (786-0 renal) | TGI (OVCAR-8 ovarian) | TGI (SF-539 CNS) | TGI (SF-295 CNS) | TGI (RXF 393 renal) | GI50 (NCI-H226 lung) | GI50 (HL-60(TB) leukemia) | GI50 (SK-MEL-5 melanoma)
1 | CON(C)C(=O)CNC(=O)OCC1c2ccccc2-c2ccccc21 | > 100 µM | > 100 µM | 90.9 µM | > 100 µM | > 100 µM | > 100 µM | > 100 µM | > 100 µM | > 100 µM | > 100 µM | > 100 µM | > 100 µM |  |  | 
2 | CSc1ccc2c(cc1=O)[C@@H](NC(=O)c1ccc(N)cc1)CCc1cc(O)c(O)c(O)c1-2 | 40.1 µM and 5.49 µM | > 100 µM | > 75 µM | 45.5 µM and 28.7 µM | 51 µM and > 100 µM | 57.3 µM and 61.6 µM | > 100 µM | 27.6 µM and 41.1 µM | > 75 µM and 59.1 µM | 27.6 µM | 39.2 µM and 46.1 µM | > 100 µM | 16.6 µM and 1.75 µM | > 75 µM | 21.1 µM and 6.63 µM
3 | COc1cc(C(=O)N(Cc2cccnc2)C(=S)N(Cc2cccnc2)C(=O)c2cc(OC)c(OC)c(OC)c2)cc(OC)c1OC | > 100 µM | > 100 µM | > 100 µM | > 100 µM | > 100 µM | > 100 µM | > 100 µM | > 100 µM | > 100 µM | > 100 µM | > 100 µM | > 100 µM |  |  | 
4 | COc1cc(/C=C2/C[C@H]3[C@@H]4CC=C5C[C@@H](O)CC[C@]5(C)[C@H]4CC[C@]3(C)NC2=O)cc(OC)c1OC | > 58.5 µM | 23.4 µM | > 100 µM | > 47.5 µM | > 100 µM | > 65.2 µM | 32.8 µM | 57.1 µM | > 70.8 µM | > 100 µM | > 65.3 µM | 42.3 µM |  |  | 
5 | COc1cccc(-c2ccc3c4c2O[C@H]2C(=O)CC[C@@]5(O)[C@@H](C3)N(CC3CC3)CC[C@]425)c1 | 26.8 µM | 63.4 µM | 40.5 µM | 28 µM | 25.6 µM | 38.8 µM | 36.4 µM | 32.1 µM | 34.3 µM | 29 µM | 32.6 µM | 21.8 µM |  |  | 
